Values quoted from earlier work as cited in patent publication US20090175967A1, “METHODS FOR TREATMENT OF INTESTINAL CARCINOGENESIS WITH RICE BRAN” (priority 2008, published 2009).

System: Apc^Min mice

In the case of `COc1cc(/C=C/C(=O)CC(=O)/C=C/c2ccc(O)c(OC)c2)ccc1O` [curcumin], the adenoma development is given as “compromised adenoma development”.
